The source of these data is patent publication US20240294522A1 (Lead Discovery Center GmbH, priority 2021, published 2024).

The target in one assay is T1, GRK5 (Homo sapiens, UniProt P34947).
T1 construct: purchased Thermo Scientific
Kind of assay: Lance Kinase Activity Assay, GRK5. The note with it: biochemical Lance kinase activity assay; class symbols A-F; read-out: GRK5 LANCE Assay (IC-50). As for the experimental part:
(§1) This protocol describes how the Lance Kinase Activity Assay was performed to determine IC50 values of compounds of general formula (I) against GRK5 and GRK2.
(§2) The principle behind this enzymatic assay is based upon the phosphorylation of the Ulight-peptide substrate. It is detected by using a specific EU-labeled anti-phospho peptide antibody. The binding of the Eu labeled anti-phospho peptide antibody to the phosphorylated ULight labeled peptide gives rise to a FRET-signal. Binding of an inhibitor to the kinase prevents phosphorylation of the Ulight-substrate, resulting in a loss of FRET. In tables 2 and 3 the relevant information for these two LANCE assays is summarized.
(§3) For every sample, 2 μl of assay buffer (50 mM HEPES pH 7,5, 10 mM MgCL2, 1 mM EGTA 0,01% Tween 20, 1% DMSO, 2 mM DTT) were transferred into a suitable assay plate (e.g. Corning #3673). Compounds were added in a concentration range from 10 μM to 0.0025 μM using an acoustic dispenser (Echo520 from Labcycte, San Jose, USA) equipped with Echo Dose Response software. After that 6 μl of kinase-substrate mix was added. Reaction was started by addition of 2 μl ATP working solution and mixed using a Bioshake 5000 microplate shaker (Q Instruments, Jena, Germany).
(§4) After 1 h incubation at room temperature the reaction was stopped with 10 μl detection mix containing the Eu-labeled phosphospecific antibody and 10 mM EDTA. After a second incubation period of 1 h at room temperature the FRET signal was measured at 340 nm excitation, 665 nm and 615 nm emission (for the ULight-substrate and Eu-AB, respectively) with an Envision microplate reader (Perkin Elmer, Waltham, MA, USA) with 50 μs delay and 300 μs integration time. IC50 values were determined from the sigmoidal dose response curves with the software Quattro Workflow (Quattro GmbH, Munich, Germany).
(§5) Inhibition is indicated as IC50 [nM] (“−”=not measured). Compounds having an activity designated as “A” provided an IC50≤50 nM; compounds having an activity designated as “B” provided an 50 nM<IC50≤100 nM; compounds having an activity designated as “C” provided an 100 nM<IC50≤500 nM; compounds having an activity designated as “D” provided an 500 nM<IC50≤1000 nM; compounds having an activity designated as “E” provided an 1000 nM<IC50≤10000 nM; and compounds having an activity designated as “F” provided an IC50>10000 nM.

The next assay deals with T2, GRK2 (Homo sapiens, UniProt P25098).
T2 construct: purchased Thermo Scientific
T2 sequence (P25098 1-689): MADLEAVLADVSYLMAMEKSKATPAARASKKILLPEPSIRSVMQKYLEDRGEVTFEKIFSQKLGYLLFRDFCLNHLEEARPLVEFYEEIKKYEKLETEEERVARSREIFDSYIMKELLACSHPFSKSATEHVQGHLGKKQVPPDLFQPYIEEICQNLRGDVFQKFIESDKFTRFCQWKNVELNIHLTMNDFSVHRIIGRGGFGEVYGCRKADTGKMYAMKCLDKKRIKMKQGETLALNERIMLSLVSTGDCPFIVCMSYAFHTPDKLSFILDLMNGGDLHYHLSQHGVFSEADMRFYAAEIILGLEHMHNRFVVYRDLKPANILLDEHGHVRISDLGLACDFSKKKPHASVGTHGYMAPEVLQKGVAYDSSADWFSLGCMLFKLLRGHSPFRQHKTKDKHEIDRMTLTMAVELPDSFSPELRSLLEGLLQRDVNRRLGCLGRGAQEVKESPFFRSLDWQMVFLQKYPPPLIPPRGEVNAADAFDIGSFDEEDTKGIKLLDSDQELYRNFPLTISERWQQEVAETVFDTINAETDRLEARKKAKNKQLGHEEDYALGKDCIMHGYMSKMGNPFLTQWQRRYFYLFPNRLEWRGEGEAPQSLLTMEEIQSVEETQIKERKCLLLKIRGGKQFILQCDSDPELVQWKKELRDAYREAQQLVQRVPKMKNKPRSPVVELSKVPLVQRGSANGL
Kind of assay: Lance Kinase Activity Assay, GRK2. The conditions noted are these: biochemical Lance kinase activity assay; class symbols A-F; read-out: GRK2 LANCE Assay (IC-50). Here is the method: as §1, §2, §3, §4, §5
In general terms: TR-FRET usually uses a lanthanide donor and a delayed reading to cut background.

pIC50: −log10 of the molar value.

T1 sequence (P34947 whole entry): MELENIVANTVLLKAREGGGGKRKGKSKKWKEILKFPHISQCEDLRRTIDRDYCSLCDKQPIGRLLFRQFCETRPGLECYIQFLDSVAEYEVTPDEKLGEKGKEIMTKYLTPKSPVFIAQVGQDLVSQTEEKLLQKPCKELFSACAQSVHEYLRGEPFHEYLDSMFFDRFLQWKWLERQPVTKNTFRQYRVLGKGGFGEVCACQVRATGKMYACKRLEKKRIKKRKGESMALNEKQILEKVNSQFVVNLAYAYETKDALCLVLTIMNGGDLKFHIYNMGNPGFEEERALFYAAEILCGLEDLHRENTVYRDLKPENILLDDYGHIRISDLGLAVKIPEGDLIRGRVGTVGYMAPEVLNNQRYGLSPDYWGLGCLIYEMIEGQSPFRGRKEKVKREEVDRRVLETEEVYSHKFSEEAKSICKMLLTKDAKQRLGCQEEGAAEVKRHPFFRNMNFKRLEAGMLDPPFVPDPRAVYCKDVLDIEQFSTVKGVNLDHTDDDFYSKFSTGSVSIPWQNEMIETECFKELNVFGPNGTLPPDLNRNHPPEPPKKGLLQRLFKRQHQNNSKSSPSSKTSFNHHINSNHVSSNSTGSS

Regarding `CN(C)c1cccc(CNC(=O)/C(C#N)=C/c2c[nH]c3ncccc23)c1` [Example 30, (E)-2-cyano-N-(3-(dimethylamino)benzyl)-3-(1H-pyrrolo[2,3-b]pyridin-3-yl)acrylamide], the pIC50 is 5.00 to 6.00 at GRK5 and less than 5.00 on GRK2.
The like results for `N#C/C(=C\c1c[nH]c2ncccc12)C(=O)NCc1cccc(C#N)c1` [Example 31, (E)-2-cyano-N-(3-cyanobenzyl)-3-(1H-pyrrolo[2,3-b]pyridin-3-yl)acrylamide] were, in that order, 6.00 to 6.30 and 5.00 to 6.00.
For `N#C/C(=C\c1c[nH]c2ncccc12)C(=O)NC(CO)c1ccccc1` (stereo not drawn) [Example 32, (E)-2-cyano-N-(2-hydroxy-1-phenylethyl)-3-(1H-pyrrolo[2,3-b]pyridin-3-yl)acrylamide], in that order: 7.00 to 7.30 and 7.00 to 7.30.
The like results for `COc1cccc([C@@H](C)NC(=O)/C(C#N)=C/c2c[nH]c3ncccc23)c1` [Example 33, (R,E)-2-cyano-N-(1-(3-methoxyphenyl)ethyl)-3-(1H-pyrrolo[2,3-b]pyridin-3-yl)acrylamide] were, in that order, no less than 7.30 and no less than 7.30.
`CC(=O)Nc1cccc(CNC(=O)/C(C#N)=C/c2c[nH]c3ncccc23)c1` [Example 34, (E)-N-(3-acetamidobenzyl)-2-cyano-3-(1H-pyrrolo[2,3-b]pyridin-3-yl)acrylamide]: the results for the pIC50 at GRK5 and on GRK2 were 6.30 to 7.00 and no less than 7.30, respectively.
As to `N#C/C(=C\c1c[nH]c2ncccc12)C(=O)NCc1ccccc1C#N` [Example 35, (E)-2-cyano-N-(2-cyanobenzyl)-3-(1H-pyrrolo[2,3-b]pyridin-3-yl)acrylamide], the pIC50 is 6.30 to 7.00 at GRK5 and 5.00 to 6.00 at GRK2.
Consider `COc1ccc(CNC(=O)/C(C#N)=C/c2c[nH]c3ncccc23)cc1S(N)(=O)=O` [Example 36, (E)-2-cyano-N-(4-methoxy-3-sulfamoylbenzyl)-3-(1H-pyrrolo[2,3-b]pyridin-3-yl)acrylamide], for which the pIC50 on GRK5 was 6.30 to 7.00; on GRK2, 5.00 to 6.00.
The like results for `N#C/C(=C\c1c[nH]c2ncccc12)C(=O)NCc1ccccc1CN1CCOCC1` [Example 37, (E)-2-cyano-N-(2-(morpholinomethyl)benzyl)-3-(1H-pyrrolo[2,3-b]pyridin-3-yl)acrylamide] were, in that order, 5.00 to 6.00 and less than 5.00.
The like results for `CC(NC(=O)/C(C#N)=C/c1c[nH]c2ncccc12)c1ccccc1-n1cccn1` (stereo not drawn) [Example 38, (E)-N-(1-(2-(1H-pyrazol-1-yl)phenyl)ethyl)-2-cyano-3-(1H-pyrrolo[2,3-b]pyridin-3-yl)acrylamide] were, in that order, 5.00 to 6.00 and 5.00 to 6.00.
As to `CS(=O)(=O)c1ccccc1CNC(=O)/C(C#N)=C/c1c[nH]c2ncccc12` [Example 39, (E)-2-cyano-N-(2-(methylsulfonyl)benzyl)-3-(1H-pyrrolo[2,3-b]pyridin-3-yl)acrylamide], the pIC50 at GRK5 is 6.30 to 7.00; at GRK2 it was 5.00 to 6.00.
Turning to `N#C/C(=C\c1c[nH]c2ncccc12)C(=O)N[C@H](CCO)c1ccccc1` [Example 40, (R,E)-2-cyano-N-(3-hydroxy-1-phenylpropyl)-3-(1H-pyrrolo[2,3-b]pyridin-3-yl)acrylamide], the pIC50 at GRK5 and on GRK2 was 6.30 to 7.00 in each case.
Regarding `N#C/C(=C\c1c[nH]c2ncccc12)C(=O)NCc1ccccc1S(=O)(=O)N1CCOCC1` [Example 41, (E)-2-cyano-N-(2-(morpholinosulfonyl)benzyl)-3-(1H-pyrrolo[2,3-b]pyridin-3-yl)acrylamide], the pIC50 at GRK5 was 6.30 to 7.00; on GRK2, 5.00 to 6.00.
The like results for `CS(=O)(=O)Nc1ccccc1CNC(=O)/C(C#N)=C/c1c[nH]c2ncccc12` [Example 42, (E)-2-cyano-N-(2-(methylsulfonamido)benzyl)-3-(1H-pyrrolo[2,3-b]pyridin-3-yl)acrylamide] were, in that order, 6.00 to 6.30 and 5.00 to 6.00.
For `CNS(=O)(=O)c1ccccc1CNC(=O)/C(C#N)=C/c1c[nH]c2ncccc12` [Example 43, (E)-2-cyano-N-(2-(N-methylsulfamoyl)benzyl)-3-(1H-pyrrolo[2,3-b]pyridin-3-yl)acrylamide], in that order: 6.30 to 7.00 and 5.00 to 6.00.
For `N#C/C(=C\c1c[nH]c2ncccc12)C(=O)NCc1ccccc1CN1CCCC1=O` [Example 44, (E)-2-cyano-N-(2-((2-oxopyrrolidin-1-yl)methyl)benzyl)-3-(1H-pyrrolo[2,3-b]pyridin-3-yl)acrylamide], in that order: 5.00 to 6.00 and 5.00 to 6.00.
In the case of `N#C/C(=C\c1c[nH]c2ncccc12)C(=O)NCc1cccc2[nH]ncc12` [Example 45, (E)-N-((1H-indazol-4-yl)methyl)-2-cyano-3-(1H-pyrrolo[2,3-b]pyridin-3-yl)acrylamide], the pIC50 at GRK5 was 6.00 to 6.30; at GRK2, 5.00 to 6.00.
For `N#C/C(=C\c1c[nH]c2ncccc12)C(=O)NCc1cccc(N2CCOCC2)c1` [Example 46, (E)-2-cyano-N-(3-morpholinobenzyl)-3-(1H-pyrrolo[2,3-b]pyridin-3-yl)acrylamide], in that order: 5.00 to 6.00 and less than 5.00.
Consider `N#C/C(=C\c1c[nH]c2ncccc12)C(=O)NC(c1cccc(Br)c1)C(F)(F)F` (stereo not drawn) [Example 47, (E)-N-(1-(3-bromophenyl)-2,2,2-trifluoroethyl)-2-cyano-3-(1H-pyrrolo[2,3-b]pyridin-3-yl)acrylamide], for which the pIC50 at GRK5 is 5.00 to 6.00; at GRK2 it was less than 5.00.
The like results for `CN(C)CCC(NC(=O)/C(C#N)=C/c1c[nH]c2ncccc12)c1ccccc1` (stereo not drawn) [Example 48, (E)-2-cyano-N-(3-(dimethylamino)-1-phenylpropyl)-3-(1H-pyrrolo[2,3-b]pyridin-3-yl)acrylamide] were, in that order, no less than 7.30 and 7.00 to 7.30.
The like results for `N#C/C(=C\c1c[nH]c2ncccc12)C(=O)NC(C#N)c1ccccc1` (stereo not drawn) [Example 49, (E)-2-cyano-N-(cyano(phenyl)methyl)-3-(1H-pyrrolo[2,3-b]pyridin-3-yl)acrylamide] were, in that order, 5.00 to 6.00 and less than 5.00.
The like results for `CN(C)CC(NC(=O)/C(C#N)=C/c1c[nH]c2ncccc12)c1ccccc1` (stereo not drawn) [Example 50, (E)-2-cyano-N-(2-(dimethylamino)-1-phenylethyl)-3-(1H-pyrrolo[2,3-b]pyridin-3-yl)acrylamide] were, in that order, 6.30 to 7.00 and 6.30 to 7.00.
As to `COc1ccc(C(CCN(C)C)NC(=O)/C(C#N)=C/c2c[nH]c3ncccc23)cc1` (stereo not drawn) [Example 51, (E)-2-cyano-N-(3-(dimethylamino)-1-(4-methoxyphenyl)propyl)-3-(1H-pyrrolo[2,3-b]pyridin-3-yl)acrylamide], the figures for the pIC50 on GRK5 and on GRK2 were no less than 7.30 and 6.00 to 6.30, respectively.
For `CCN(CC)CCC(NC(=O)/C(C#N)=C/c1c[nH]c2ncccc12)c1ccccc1` (stereo not drawn) [Example 52, (E)-2-cyano-N-(3-(diethylamino)-1-phenylpropyl)-3-(1H-pyrrolo[2,3-b]pyridin-3-yl)acrylamide], in that order: 6.30 to 7.00 and 6.30 to 7.00.
Consider `COc1ccc([C@@H](CO)NC(=O)/C=C/c2c[nH]c3ncc(C)cc23)cc1OC` [Example 53, (S,E)-N-(1-(3,4-dimethoxyphenyl)-2-hydroxyethyl)-3-(5-methyl-1H-pyrrolo[2,3-b]pyridin-3-yl)acrylamide], for which the pIC50 is no less than 7.30 at GRK5 and 5.00 to 6.00 at GRK2.
